Laboratory results from patent publication US20210102215A1, “TREATMENT AND PREVENTION OF VIRAL INFECTION” (priority 2016, published 2021).
d = 2'-deoxy (DNA); r = 2'-OH (RNA)

Columns and labels:
Bna1 promoter = details: cited from earlier work
HCVpp = format: cell-based, hepatitis C virus; details: cells treated with Rev-erbα agonists (FIG. 3c, 3d)
HIV virus (NL4.3) = experiment: HIV (NL4.3) infection of TZM-bl cells, HIV promoter luciferase assay; details: for HIV infection (HIV promoter activity): increasing dose, 24 h (FIGS. 11a, 11b)
[1] = test system: HCV genotype 3a S52 replicon; details: REV-ERB agonists 20 μM with increasing DAA, 48 h (FIGS. 10f, 10g)
HCV infected Huh-7 cells = experiment: Viral RNA load in chronic HCV infected cells by qPCR; format: cell-based, hepatitis C virus; details: increasing dose, 24 hours, qPCR (FIG. 5a)
Protocol: To assess the ability of REV-ERB activators to limit HCV RNA replication, HCV infected Huh-7 cells (verified by NSSA staining) were treated with GSK4112 or SR9009 at a range of doses. […], HCV infection levels were quantified by reverse transcriptase polymerase chain measurement of viral RNA (see FIG. 4b).
Huh-7 cells were treated with either REV-ERBα agonist GSK4112 or SR9009 for 16 hour at a range of doses. Medium containing the drug was then removed following viral inoculation and infectivity assessed 24 hours later. To evaluate the efficacy of these drugs in viral replication, chronic infected HCV or HBV cells were treated with REV-ERBα activators at a range of concentrations and viral load determined by real-time qPCR 24 hours later.
(§1) The ability of REV-ERBα activators to reduce viral burden of chronic HCV infected cells was then tested. […] An identical assay was performed in two chronic HBV infected cell lines—2215 and AD38.
HCVcc SA13/JFH-1 infected Huh-7 cells were also treated with increasing concentrations of GSK2667 for 24 h and viral RNA levels measured after 24 h.

[2] = test system: pseudoparticles expressing viral glycoproteins (HCV, VSV, Lassa, Flu, MLC, Ebola); format: cell-based
Bmal1 mRNA = Bmal1 mRNA levels by qPCR in hepatocytes / Huh-7 cells; details: qPCR (FIG. 3a)
HCV sub-genomic replicon = experiment: HCV genome replication in a synthetic sub-genomic replicon line; details: dose-dependent (FIG. 4a)
[3] = test system: chronic HBV infected cell lines 2215 and AD38; experiment: HBV RNA levels in chronic HBV infected cell lines; format: cell-based, hepatitis B virus; details: 2215 and AD38 cells, 48 hours (FIG. 5c)
Protocol: Huh-7 cells were treated with either REV-ERBα agonist GSK4112 or SR9009 for 16 hour at a range of doses. Medium containing the drug was then removed following viral inoculation and infectivity assessed 24 hours later.
as §1

Zika virus = details: Huh-7, infectivity after 24 h and 48 h (FIG. 12)
[4] = test system: HCV sub-genomic replicons genotypes 1b, 2a, 3a; experiment: HCV sub-genomic luciferase replicons genotypes 1-3 in Huh-7.5-SEC14L2 cells; details: genotypes 1-3 replicons, increasing concentrations, 24 h (FIGS. 10c-e)

CS(=O)(=O)N(Cc1ccco1)CC(O)Cn1c2ccccc2c2ccccc21 (stereo not shown) [KL001]
Bmal1 promoter activity (Bna1 promoter): inhibit Bna1 promoter activity

CCOC(=O)C1Cc2ccccc2CN1C(=O)c1ccc(SC)s1 (stereo not shown) [SR8278]
Effect on the anti-viral activity (HCV entry) of REV-ERBα agonists GSK4112/SR9009 (HCVpp): rescued
HIV infection (HIV promoter activity) (HIV virus (NL4.3)): promotes HIV infection

CC(C)OC(=O)[C@H](C)N[P@](=O)(OC[C@H]1O[C@@H](n2ccc(=O)[nH]c2=O)[C@](C)(F)[C@@H]1O)Oc1ccccc1 [Sofosbuvir]
Combined effect of REV-ERB agonist and DAA on HCV genotype 3 replication [1]: additive effects

Rev-erbα siRNA: rev-erba siRNA duplex from Life technologies, SEQ ID NO 5 and 6, two-base DNA overhang (chain 1 GGUGUCUGAAGAAUGAGAATT; chain 2 UUCUCAUUCUUCAGACACCTT; sugars from the 5' end r19 d2, backbone and methylation of C not given here)
Effect on the anti-viral activity (HCV entry) of REV-ERBα agonists GSK4112/SR9009 (HCVpp): rescued
HIV promoter activity after siRNA knockdown (HIV virus (NL4.3); 48 h post-siRNA, HIV 24 h (FIG. 11c)): increased HIV promoter activity

CC(C)(C)OC(=O)CN(Cc1ccc(Cl)cc1)Cc1ccc([N+](=O)[O-])s1 [GSK4112]
Viral load (HCV genomic RNA) (HCV infected Huh-7 cells): dose-dependent reduction in viral load
Entry of pseudoparticles of multiple viruses [2]: inhibitory effect on entry was replicated across multiple viruses including lassa and ebola
Bmal1 mRNA levels (Bmal1 mRNA): decreased Bmal1 mRNA levels
Replication of the HCV genome (HCV sub-genomic replicon): inhibited
HIV infection (HIV promoter activity) (HIV virus (NL4.3)): inhibit HIV infection

CCOC(=O)N1CCC(CN(Cc2ccc(Cl)cc2)Cc2ccc([N+](=O)[O-])s2)C1 (stereo not shown) [SR9009]
Viral load (HCV genomic RNA) (HCV infected Huh-7 cells): dose-dependent reduction in viral load
HBV RNA levels [3]: significantly reduced HBV RNA levels
Zika infection (Zika virus): inhibit Zika infection
Bmal1 mRNA levels (Bmal1 mRNA): decreased Bmal1 mRNA levels
Replication of the HCV genome (HCV sub-genomic replicon): inhibited
HIV infection (HIV promoter activity) (HIV virus (NL4.3)): inhibit HIV infection
Combined effect of REV-ERB agonist and DAA on HCV genotype 3 replication [1]: additive effects
Antiviral activity against HCV RNA replication across genotypes [4]: pan-genomic
